# Assay results as given in paper PMC11444863 (Bioscience of Microbiota, Food and Health, 2024).
# Target: T1, Hyaluronidase from bovine testes (Bos taurus, UniProt Q2YDK3)
# T1 sequence (Q2YDK3 36-553): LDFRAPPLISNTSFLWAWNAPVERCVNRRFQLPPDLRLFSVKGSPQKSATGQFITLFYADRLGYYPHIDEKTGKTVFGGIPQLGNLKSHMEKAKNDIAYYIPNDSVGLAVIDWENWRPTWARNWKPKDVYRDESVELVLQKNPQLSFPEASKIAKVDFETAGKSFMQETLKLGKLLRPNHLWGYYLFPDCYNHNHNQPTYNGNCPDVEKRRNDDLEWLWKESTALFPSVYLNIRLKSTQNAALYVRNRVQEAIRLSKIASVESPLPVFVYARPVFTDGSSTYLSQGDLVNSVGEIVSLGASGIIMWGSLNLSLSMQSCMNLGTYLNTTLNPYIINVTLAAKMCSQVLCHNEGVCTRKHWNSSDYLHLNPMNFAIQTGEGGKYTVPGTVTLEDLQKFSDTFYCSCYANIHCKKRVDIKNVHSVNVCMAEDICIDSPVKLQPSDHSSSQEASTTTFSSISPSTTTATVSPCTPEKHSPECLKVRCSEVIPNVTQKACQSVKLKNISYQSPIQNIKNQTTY
# Assay: colorimetric hyaluronidase inhibition assay
# Assay type: biochemical
row,IC50 [µM],SMILES
1,2820 ± 38,"O=C(O)CCC(=O)C(=O)O [AKG, α-ketoglutarate]"
2,360 ± 41,"O=C(O)c1cc(=O)c2c(OCC(O)COc3cccc4oc(C(=O)O)cc(=O)c34)cccc2o1 [DSCG, disodium cromoglycate]"
